Laboratory results published in patent US20140093884A1, “Process for Identifying Novel Anti-Inflammatory Molecules with Reduced Direct Transrepression of Genes Induced by Glucocorticoids” (UNIVERSITE DE STRASBOURG, priority 2011, published 2014).

Assays:
Assay type in all cases: in vivo, mouse
Design in all cases: key: ♦: not repressed
[1] = test system: IR0, IR1 and IR2 nGRE containing genes; test: Q-RT-PCR of IR nGRE-containing genes in epidermis of 18 hr-Dex-treated WT mice
Excerpt: (§1) Real time PCR. Total RNA was reverse transcribed using hexamers, followed by Q-PCR, as reported (Li et al., 2005).
(§2) A comparison of mouse and human orthologues indicated conservations of such IR elements (51 IR0, 379 IR1 and 566 IR2). Within these orthologue gene families, 35 IR0, 50 IR1 and 50 IR2 nGRE-containing mouse genes (Table 4) were randomly chosen to investigate whether (i) they were expressed in epidermis, intestinal epithelium and liver, (ii) their expression was inhibited by the GC agonist Dexamethasone (Dex), (iii) this inhibition could be relieved by RU486 co-administration, and also if it could be correlated with GR and corepressor binding to their putative IR nGREs.

[2] = test system: IR0, IR1 and IR2 nGRE containing genes; test: Q-RT-PCR of IR nGRE-containing genes in intestinal epithelium of 18 hr-Dex-treated WT mice
Excerpt: as §1, §2

[3] = test system: IR0, IR1 and IR2 nGRE containing genes; test: Q-RT-PCR of IR nGRE-containing genes in liver of 18 hr-Dex-treated WT mice
Excerpt: as §1, §2

C[C@@H]1C[C@H]2[C@@H]3CCC4=CC(=O)C=C[C@]4(C)[C@@]3(F)[C@@H](O)C[C@]2(C)[C@@]1(O)C(=O)CO [Dex, dexamethasone]
♦: AIP transcript level, not repressed ([1]; IR0 nGRE gene) | DDI1 transcript level, not repressed ([1]; IR0 nGRE gene) | DLAT transcript level, not repressed ([1]; IR0 nGRE gene) | FBXL18 transcript level, not repressed ([1]; IR0 nGRE gene) | FSD2 transcript level, not repressed ([1]; IR0 nGRE gene) | GPIHBP1 transcript level, not repressed ([1]; IR0 nGRE gene) | HCST transcript level, not repressed ([1]; IR0 nGRE gene) | KLF5 transcript level, not repressed ([1]; IR0 nGRE gene) | LAG3 transcript level, not repressed ([1]; IR0 nGRE gene) | MTG1 transcript level, not repressed ([1]; IR0 nGRE gene) | NEU1 transcript level, not repressed ([1]; IR0 nGRE gene) | PTMS transcript level, not repressed ([1]; IR0 nGRE gene) | SLC25A5 transcript level, not repressed ([1]; IR0 nGRE gene) | TCF25 transcript level, not repressed ([1]; IR0 nGRE gene) | TRPM7 transcript level, not repressed ([1]; IR0 nGRE gene) | ZBED4 transcript level, not repressed ([1]; IR0 nGRE gene) | ZFP113 transcript level, not repressed ([1]; IR0 nGRE gene) | ZFP467 transcript level, not repressed ([1]; IR0 nGRE gene) | ZFP784 transcript level, not repressed ([1]; IR0 nGRE gene) | AGPAT2 transcript level, not repressed ([1]; IR1 nGRE gene) | AKAP6 transcript level, not repressed ([1]; IR1 nGRE gene) | ARHGAP23 transcript level, not repressed ([1]; IR1 nGRE gene) | ATN1 transcript level, not repressed ([1]; IR1 nGRE gene) | B4GALT2 transcript level, not repressed ([1]; IR1 nGRE gene) | BCL2L1 transcript level, not repressed ([1]; IR1 nGRE gene) | BEST2 transcript level, not repressed ([1]; IR1 nGRE gene) | BMP3 transcript level, not repressed ([1]; IR1 nGRE gene) | CACNA2D3 transcript level, not repressed ([1]; IR1 nGRE gene) | CADM4 transcript level, not repressed ([1]; IR1 nGRE gene) | CDK9 transcript level, not repressed ([1]; IR1 nGRE gene) | CTSA transcript level, not repressed ([1]; IR1 nGRE gene) | DYNLT3 transcript level, not repressed ([1]; IR1 nGRE gene) | GNG10 transcript level, not repressed ([1]; IR1 nGRE gene) | GPR108 transcript level, not repressed ([1]; IR1 nGRE gene) | GPR153 transcript level, not repressed ([1]; IR1 nGRE gene) | JUND transcript level, not repressed ([1]; IR1 nGRE gene) | KLC3 transcript level, not repressed ([1]; IR1 nGRE gene) | LRRC transcript level, not repressed ([1]; IR1 nGRE gene) | MT2 transcript level, not repressed ([1]; IR1 nGRE gene) | MTHFR transcript level, not repressed ([1]; IR1 nGRE gene) | MXI1 transcript level, not repressed ([1]; IR1 nGRE gene) | NKRF transcript level, not repressed ([1]; IR1 nGRE gene) | SCP2 transcript level, not repressed ([1]; IR1 nGRE gene) | SREPF1 transcript level, not repressed ([1]; IR1 nGRE gene) | SSTR4 transcript level, not repressed ([1]; IR1 nGRE gene) | STAB1 transcript level, not repressed ([1]; IR1 nGRE gene) | USF1 transcript level, not repressed ([1]; IR1 nGRE gene) | COL4A3BP transcript level, not repressed ([1]; IR2 nGRE gene) | ELMOD3 transcript level, not repressed ([1]; IR2 nGRE gene) | FKBP2 transcript level, not repressed ([1]; IR2 nGRE gene) | FOXQ1 transcript level, not repressed ([1]; IR2 nGRE gene) | GGT1 transcript level, not repressed ([1]; IR2 nGRE gene) | GIT2 transcript level, not repressed ([1]; IR2 nGRE gene) | GLU1 transcript level, not repressed ([1]; IR2 nGRE gene) | GOT1 transcript level, not repressed ([1]; IR2 nGRE gene) | GPR97 transcript level, not repressed ([1]; IR2 nGRE gene) | GRASP transcript level, not repressed ([1]; IR2 nGRE gene) | HSPB2 transcript level, not repressed ([1]; IR2 nGRE gene) | POMGNT1 transcript level, not repressed ([1]; IR2 nGRE gene) | PRKRA transcript level, not repressed ([1]; IR2 nGRE gene) | RORA transcript level, not repressed ([1]; IR2 nGRE gene) | SLC2A8 transcript level, not repressed ([1]; IR2 nGRE gene) | TGM6 transcript level, not repressed ([1]; IR2 nGRE gene) | AIP transcript level, not repressed ([2]; IR0 nGRE gene) | ANO4 transcript level, not repressed ([2]; IR0 nGRE gene) | CITED1 transcript level, not repressed ([2]; IR0 nGRE gene) | DLAT transcript level, not repressed ([2]; IR0 nGRE gene) | FBXL18 transcript level, not repressed ([2]; IR0 nGRE gene) | GPIHBP1 transcript level, not repressed ([2]; IR0 nGRE gene) | KLF5 transcript level, not repressed ([2]; IR0 nGRE gene) | LAG3 transcript level, not repressed ([2]; IR0 nGRE gene) | MAPK4 transcript level, not repressed ([2]; IR0 nGRE gene) | MTG1 transcript level, not repressed ([2]; IR0 nGRE gene) | NDUFA4L2 transcript level, not repressed ([2]; IR0 nGRE gene) | NEU1 transcript level, not repressed ([2]; IR0 nGRE gene) | PPIL5 transcript level, not repressed ([2]; IR0 nGRE gene) | PTMS transcript level, not repressed ([2]; IR0 nGRE gene) | SLC25A5 transcript level, not repressed ([2]; IR0 nGRE gene) | SP9 transcript level, not repressed ([2]; IR0 nGRE gene) | SPARC transcript level, not repressed ([2]; IR0 nGRE gene) | TCF25 transcript level, not repressed ([2]; IR0 nGRE gene) | TRPM7 transcript level, not repressed ([2]; IR0 nGRE gene) | ZBED4 transcript level, not repressed ([2]; IR0 nGRE gene) | ZFP113 transcript level, not repressed ([2]; IR0 nGRE gene) | ZFP467 transcript level, not repressed ([2]; IR0 nGRE gene) | ZFP784 transcript level, not repressed ([2]; IR0 nGRE gene) | ADRA2A transcript level, not repressed ([2]; IR1 nGRE gene) | AGPAT2 transcript level, not repressed ([2]; IR1 nGRE gene) | ATN1 transcript level, not repressed ([2]; IR1 nGRE gene) | BCL2L1 transcript level, not repressed ([2]; IR1 nGRE gene) | BMP3 transcript level, not repressed ([2]; IR1 nGRE gene) | CADM4 transcript level, not repressed ([2]; IR1 nGRE gene) | CDH11 transcript level, not repressed ([2]; IR1 nGRE gene) | CDK9 transcript level, not repressed ([2]; IR1 nGRE gene) | CTSA transcript level, not repressed ([2]; IR1 nGRE gene) | DYNLT3 transcript level, not repressed ([2]; IR1 nGRE gene) | GPR108 transcript level, not repressed ([2]; IR1 nGRE gene) | GPR153 transcript level, not repressed ([2]; IR1 nGRE gene) | KLC3 transcript level, not repressed ([2]; IR1 nGRE gene) | LRRC transcript level, not repressed ([2]; IR1 nGRE gene) | MTHFR transcript level, not repressed ([2]; IR1 nGRE gene) | MXI1 transcript level, not repressed ([2]; IR1 nGRE gene) | NKRF transcript level, not repressed ([2]; IR1 nGRE gene) | SCP2 transcript level, not repressed ([2]; IR1 nGRE gene) | SOCS3 transcript level, not repressed ([2]; IR1 nGRE gene) | SREPF1 transcript level, not repressed ([2]; IR1 nGRE gene) | SSTR4 transcript level, not repressed ([2]; IR1 nGRE gene) | STAB1 transcript level, not repressed ([2]; IR1 nGRE gene) | COL4A3BP transcript level, not repressed ([2]; IR2 nGRE gene) | DPAGT1 transcript level, not repressed ([2]; IR2 nGRE gene) | ELMOD3 transcript level, not repressed ([2]; IR2 nGRE gene) | ERP27 transcript level, not repressed ([2]; IR2 nGRE gene) | FSTL1 transcript level, not repressed ([2]; IR2 nGRE gene) | GIT2 transcript level, not repressed ([2]; IR2 nGRE gene) | GLU1 transcript level, not repressed ([2]; IR2 nGRE gene) | GOT1 transcript level, not repressed ([2]; IR2 nGRE gene) | GPR68 transcript level, not repressed ([2]; IR2 nGRE gene) | GUK1 transcript level, not repressed ([2]; IR2 nGRE gene) | HSPB2 transcript level, not repressed ([2]; IR2 nGRE gene) | HSPB3 transcript level, not repressed ([2]; IR2 nGRE gene) | ITPKA transcript level, not repressed ([2]; IR2 nGRE gene) | MUC20 transcript level, not repressed ([2]; IR2 nGRE gene) | PRKRA transcript level, not repressed ([2]; IR2 nGRE gene) | SLC2A8 transcript level, not repressed ([2]; IR2 nGRE gene) | SLC25A34 transcript level, not repressed ([2]; IR2 nGRE gene) | SOCS1 transcript level, not repressed ([2]; IR2 nGRE gene) | TGM6 transcript level, not repressed ([2]; IR2 nGRE gene) | TNFRSF25 transcript level, not repressed ([2]; IR2 nGRE gene) | AIP transcript level, not repressed ([3]; IR0 nGRE gene) | CITED1 transcript level, not repressed ([3]; IR0 nGRE gene) | DLAT transcript level, not repressed ([3]; IR0 nGRE gene) | FBXL18 transcript level, not repressed ([3]; IR0 nGRE gene) | GPIHBP1 transcript level, not repressed ([3]; IR0 nGRE gene) | INHBE transcript level, not repressed ([3]; IR0 nGRE gene) | MTG1 transcript level, not repressed ([3]; IR0 nGRE gene) | NMYC transcript level, not repressed ([3]; IR0 nGRE gene) | PTMS transcript level, not repressed ([3]; IR0 nGRE gene) | TCF25 transcript level, not repressed ([3]; IR0 nGRE gene) | ZBED4 transcript level, not repressed ([3]; IR0 nGRE gene) | ZFP113 transcript level, not repressed ([3]; IR0 nGRE gene) | ZFP784 transcript level, not repressed ([3]; IR0 nGRE gene) | ADRA2A transcript level, not repressed ([3]; IR1 nGRE gene) | AGPAT2 transcript level, not repressed ([3]; IR1 nGRE gene) | BMP3 transcript level, not repressed ([3]; IR1 nGRE gene) | CADM4 transcript level, not repressed ([3]; IR1 nGRE gene) | CDH11 transcript level, not repressed ([3]; IR1 nGRE gene) | CDK9 transcript level, not repressed ([3]; IR1 nGRE gene) | CTSA transcript level, not repressed ([3]; IR1 nGRE gene) | DYNLT3 transcript level, not repressed ([3]; IR1 nGRE gene) | GPR108 transcript level, not repressed ([3]; IR1 nGRE gene) | GPR153 transcript level, not repressed ([3]; IR1 nGRE gene) | HSD11B2 transcript level, not repressed ([3]; IR1 nGRE gene) | KLC3 transcript level, not repressed ([3]; IR1 nGRE gene) | LRRC transcript level, not repressed ([3]; IR1 nGRE gene) | MT2 transcript level, not repressed ([3]; IR1 nGRE gene) | MTHFR transcript level, not repressed ([3]; IR1 nGRE gene) | MXI1 transcript level, not repressed ([3]; IR1 nGRE gene) | SCP2 transcript level, not repressed ([3]; IR1 nGRE gene) | SGK3 transcript level, not repressed ([3]; IR1 nGRE gene) | SREPF1 transcript level, not repressed ([3]; IR1 nGRE gene) | SSTR4 transcript level, not repressed ([3]; IR1 nGRE gene) | STAB1 transcript level, not repressed ([3]; IR1 nGRE gene) | CCR10 transcript level, not repressed ([3]; IR2 nGRE gene) | COL4A3BP transcript level, not repressed ([3]; IR2 nGRE gene) | DPAGT1 transcript level, not repressed ([3]; IR2 nGRE gene) | ELMOD3 transcript level, not repressed ([3]; IR2 nGRE gene) | ERP27 transcript level, not repressed ([3]; IR2 nGRE gene) | FOXJ1 transcript level, not repressed ([3]; IR2 nGRE gene) | FOXQ1 transcript level, not repressed ([3]; IR2 nGRE gene) | GGT1 transcript level, not repressed ([3]; IR2 nGRE gene) | GOT1 transcript level, not repressed ([3]; IR2 nGRE gene) | GPR97 transcript level, not repressed ([3]; IR2 nGRE gene) | GRASP transcript level, not repressed ([3]; IR2 nGRE gene) | HSPB2 transcript level, not repressed ([3]; IR2 nGRE gene) | HSPB3 transcript level, not repressed ([3]; IR2 nGRE gene) | MUC20 transcript level, not repressed ([3]; IR2 nGRE gene) | POMGNT1 transcript level, not repressed ([3]; IR2 nGRE gene) | PRKRA transcript level, not repressed ([3]; IR2 nGRE gene) | SOCS1 transcript level, not repressed ([3]; IR2 nGRE gene) | TNFRSF25 transcript level, not repressed ([3]; IR2 nGRE gene)
